Experiments:
[1] = test system: HCC38 cells; experiment: CyQUANT cell viability assay, 48-hour exposure; assay type: cell-based, human
Method: (§1) After drug treatments, fluorescence readings from 96-well plates were obtained using the CyQUANT dye and compared to standard curves for each cell line to determine cell viability. […] Trypan blue exclusion was used to estimate cell numbers in a few pilot experiments and was thereafter applied to confirm cell death.
A series of experiments was conducted to assess the relative efficacy of 4SP65, 1LP65, and amifostine as single agents in the same human cancer cell lines. First, the effectiveness of 4SP65 was tested against 15 cancer cell lines derived from seven tissues. […] The effectiveness of 0 to ≤500 μM amifostine was tested in sets of cancer cell lines reported to have either medium, high, or no expression of alkaline phosphatase.
(§2) Trans. R Soc. Lond. […] Using cell numbers based on fluorescence measurements and standard curves [time zero, (Tz), control growth, (C), and test growth in the presence of drug at five or more concentration levels (Ti)], the percentage growth was calculated at each drug concentration level. The percentage of growth inhibition was calculated as follows:
(§3) The LC50/99 was calculated using Equation 2=−50 and Eq. 2=−99, respectively. […] For NHMECs, the relationships between drug exposure levels and fluorescence units were used to define dose-response metrics. The selectivity index (SI) values for individual drug treatments were calculated as IC50 levels in NHMECs divided by the IC50 values in cancer cell lines.

[2] = test system: SKOV3 ovarian cancer cells; assay type: cell-based
Method: (§7) Trypan Blue exclusion was applied as a complementary confirmation probe for cell death.
(§8) Statistical comparisons of differences in individual dose-response metrics between individual/paired drug treatments and various cell lines were conducted using the Student's t-test, with P-values <0.05 considered significant.
(§9) Relative cell growth inhibition values for differing levels each drug alone and in combination were input into SynergyFinder to generated dose-response curves for each drug alone, to produce a dose-response matrix, to visualize the distribution of areas of differing degrees of synergism in a 2-dimension heatmap and 3-dimension volcano plot, and to calculate average and maximum synergy scores in selected human cancer cell lines. […] Synergy scores <10 means that the interaction between two drugs was likely to be antagonistic; scores from −10 to 10 means the interaction between two drugs was likely to be additive; and scores >10 means the interaction between two drugs was likely to be synergistic.

[3] = test system: LNCaP; experiment: Trypan Blue cell count after 48 hour exposure; assay type: cell-based, human; details: read-out: Average Growth Inhibitory Dose 50% [EC50], Prostate cancer cell line (LNCaP)
Method: (§4) To evaluate the anticancer activity of 4-arm star polyethylene glycol conjugated to WR-1065 (4SP65), the anticancer efficacy of 4SP65 was determined in some of the same cell lines used by NIH/NCI, and the methodology used was the same as is used by the NCI to evaluate chemotherapeutic agents currently in use (O'Connor et al., “Characterization of the p53 Tumor Suppressor Pathway in Cell Lines of the National Cancer Institute Anticancer Drug Screen and Correlations With the Growth-Inhibitory Potency of 123 Anticancer Agents,” Cancer Res. 57 (19): 4285-300 (1997), which is hereby incorporated by reference in its entirety). Testing of 6 cancer types was completed: (i) breast cancer (MDA-MB-231 cells), (ii) lung cancer (A549), (iii) prostate cancer cell line (LNCaP), (iv) myelogenous leukemia (HL60 cells), (v) ovarian cancer (SK-OV-3), and (vi) prostate cancer (DU-145).
(§5) Each cell line was grown in medium as recommended by the ATCC or as presented in the literature for that cell line. All cells were cultured in a water jacket incubator at 36-37° C. and in the presence of 5% CO2. To ensure optimal growth and viability, all cells were grown on plates coated with FNC (In Vitrogen). Cells were refed with growth medium twice weekly until they had reached 60 to 70% confluence. At this point, the medium was replaced with growth medium supplemented with 4SP65 at doses ranging from 0 to up to 300 micromolar. Cells were allowed to grow in the presence of this supplemented medium for 48 hours, and then they were removed by trypsinization, stained with Trypan Blue and counted in a hemocytometer. Three to four replicates for each dose group per experiment were performed. The percentage cell death was determined by comparing the average number of surviving cells exposed to 4SP65 versus the average number of surviving sham exposed cells.

[4] = test system: MDA-MB-231 cells; experiment: Trypan Blue cell count after 48 hour exposure; assay type: cell-based, human; details: read-out: Average Growth Inhibitory Dose 50% [EC50], Breast CA (MDA-MB-231)
Method: as §4, §5

[5] = test system: DU-145; experiment: Trypan Blue cell count after 48 hour exposure; assay type: cell-based, human; details: read-out: Average Growth Inhibitory Dose 50% [EC50], Prostate CA (DU-145)
Method: as §4, §5

[6] = test system: A549; experiment: Trypan Blue cell count after 48 hour exposure; assay type: cell-based, human; details: read-out: Average Growth Inhibitory Dose 50% [EC50], Lung CA (A549)
Method: as §4, §5

[7] = test system: HL60 cells; experiment: Trypan Blue cell count after 48 hour exposure; assay type: cell-based, human; details: read-out: Average Growth Inhibitory Dose 50% [EC50], Myelogenous Leukemia (HL60)
Method: as §4, §5

[8] = test system: SK-OV-3; experiment: Trypan Blue cell count after 48 hour exposure; assay type: cell-based, human; details: read-out: Average Growth Inhibitory Dose 50% [EC50], Ovarian CA (SK-OV-3)
Method: as §4, §5

[9] = test system: NCI-H460 NSCLC cells; assay type: cell-based
Method: as §7, §8, §9

[10] = test system: LP9 cells; assay type: cell-based
Method: (§6) To determine potential cytostatic or cytocidal effects of BRG prodrugs in immortalized, non-tumorigenic cells, Vero, HEK-293t, LP9, and HPM3 cells were exposed to 4SP65 while only Vero cells also were treated with 1LP65. […] Comparisons across other dose-response metrics could not be made because such levels of effects were not induced in NHMECs exposed to 4SP65. […] Since cytostatic and cytolytic effects at the TGI and LC50/99 levels were induced in Vero cells exposed to 1LP65 but not in NHMECs, there is a significant difference in the effects of 1LP65 in Vero cells compared to NHMECs, but p values based upon t-test evaluations cannot be defined due to lack of numerical data.

[11] = test system: HEK-293t cells; assay type: cell-based
Method: as §6

[12] = test system: PC3 cells; experiment: CyQUANT cell viability assay, 48-hour exposure; assay type: cell-based; details: Homo sapiens, PC-3
Method: as §1
A series of experiments was conducted to assess the relative efficacy of 4SP65, 1LP65, and amifostine as single agents in the same human cancer cell lines. First, the effectiveness of 4SP65 was tested against 15 cancer cell lines derived from seven tissues. […]
as §2, with “Trans.” for “Trans. R Soc. Lond.”
as §3

[13] = NCI-H460, each drug alone, 48 h

4-star PEG-S-S-WR1065 [4SP65]
Relative potency compared to amifostine at IC50 ([1]; HCC38 cells): 67 fold
selectivity index ([1]; IC50 of 76 in most sensitive NHMEC strain / IC50 in HCC38): > 19
CC50 [2]: 9.7 ± 0.5 µM
GI50 ([2]; SKOV3, each drug alone, 48 h): 4.3 ± 1 µM
IC50 ([2]; SKOV3, each drug alone, 48 h): 5.2 ± 1 µM
LC99 ([2]; SKOV3, each drug alone, 48 h): 10.0 ± 0.8 µM
TGI ([2]; SKOV3, each drug alone, 48 h): 7.3 ± 0.8 µM
fold more effective as cytostatic agent than PRIMA-1/PRIMA-1met (GI50) ([2]; TP53-null SKOV3 cells): 16 fold
EC50 [3]: 9.5 µM
EC50 [4]: 4.5 µM
EC50 [5]: 6.7 µM
EC50 [6]: 15 µM
EC50 [7]: 3000 nM
EC50 [8]: 5 µM
CC50 [9]: 17.6 ± 0.5 µM
Fold increase in efficacy at GI50 ([9]; NCI-H460, drug alone vs in 4SP65-cisplatin combination): 36 fold
GI50 [9, 13]: 12.3 ± 1.1 µM
IC50 [9, 13]: 13.3 ± 1 µM
LC99 [9, 13]: 18.2 ± 0.4 µM
TGI [9, 13]: 16.9 ± 0.6 µM
CC50 [10]: 19 µM
GI50 ([10]; LP9): 9.2 µM
TGI ([10]; LP9): 13.5 µM
CC50 [11]: 60.6 µM
GI50 ([11]; HEK-293t): 15.8 µM
LC99 ([11]; HEK-293t): 62.4 µM
TGI ([11]; HEK-293t): 58.8 µM

COCCOCCOCCOCCOCCOCCSSCCNCCCN [1LP65, m-PEG6-S-S-WR1065]
GI50 [12]: 22.9 µM
